From PubChem BioAssay AID602147 (Vanderbilt Specialized Chemistry Center, 2011)

Target: Phospholipase D2 (Homo sapiens) (UniProt O14939)
Assay: cellular phospholipase D2 inhibition IC50 – cell-based, dose response (AID 602147)
Conditions: cellular PLD2 activity assay, concentration response

Phospholipase D2 (Homo sapiens), sequence (O14939 whole entry, looked up): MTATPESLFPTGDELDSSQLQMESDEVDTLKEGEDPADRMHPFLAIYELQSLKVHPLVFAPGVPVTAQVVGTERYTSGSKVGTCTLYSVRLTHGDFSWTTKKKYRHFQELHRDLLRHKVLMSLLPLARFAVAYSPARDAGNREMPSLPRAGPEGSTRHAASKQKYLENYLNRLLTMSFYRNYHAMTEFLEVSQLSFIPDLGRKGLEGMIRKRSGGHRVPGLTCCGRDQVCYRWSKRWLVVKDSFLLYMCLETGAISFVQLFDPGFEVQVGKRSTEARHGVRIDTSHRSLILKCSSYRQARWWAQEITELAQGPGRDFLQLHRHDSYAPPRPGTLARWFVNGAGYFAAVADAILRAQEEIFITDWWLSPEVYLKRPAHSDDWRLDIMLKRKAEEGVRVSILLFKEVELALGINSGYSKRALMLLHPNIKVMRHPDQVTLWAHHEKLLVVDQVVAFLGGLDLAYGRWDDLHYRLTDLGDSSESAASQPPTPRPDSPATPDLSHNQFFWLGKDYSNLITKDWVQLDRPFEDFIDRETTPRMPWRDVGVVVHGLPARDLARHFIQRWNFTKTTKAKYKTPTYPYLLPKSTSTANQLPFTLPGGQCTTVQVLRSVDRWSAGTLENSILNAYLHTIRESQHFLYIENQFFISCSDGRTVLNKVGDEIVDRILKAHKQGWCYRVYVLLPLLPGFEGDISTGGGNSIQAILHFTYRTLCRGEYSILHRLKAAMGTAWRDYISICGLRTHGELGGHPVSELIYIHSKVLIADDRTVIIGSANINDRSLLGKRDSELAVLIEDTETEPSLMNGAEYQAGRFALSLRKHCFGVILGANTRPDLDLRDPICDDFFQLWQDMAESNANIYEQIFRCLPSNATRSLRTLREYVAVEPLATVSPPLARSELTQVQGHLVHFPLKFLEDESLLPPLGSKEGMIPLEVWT
Phospholipase D2 (Homo sapiens), sequence (O14939 whole entry, looked up): as above

Row | SMILES | IC50
1 | O=C(NCCN1CCC2(CC1)C(=O)NCN2c1ccc(Br)cc1)c1cc2cc(F)ccc2[nH]1 | 100 nM
2 | O=C(NCCN1CCC2(CC1)C(=O)NCN2c1ccc(Cl)cc1)c1ccc(F)cc1 | 5670 nM
3 | O=C(NCCN1CCC2(CC1)C(=O)NCN2c1ccc(F)cc1)c1ccc(F)cc1 | 610 nM
4 | O=C(NCCN1CCC2(CC1)C(=O)NCN2c1ccc(Cl)cc1)c1cc2cc(F)ccc2[nH]1 | 50 nM
5 | O=C(NCCN1CCC2(CC1)C(=O)NCN2c1cccc(Cl)c1)c1ccc2ccccc2c1 | 290 nM
6 | O=C(NCCN1CCC2(CC1)C(=O)NCN2c1ccc(F)cc1)c1cnc2ccccc2c1 | 40 nM
7 | O=C(C#Cc1ccccc1)NCCN1CCC2(CC1)C(=O)NCN2c1ccccc1 | 1640 nM
8 | O=C(NCCN1CCC2(CC1)C(=O)NCN2c1ccccc1)c1cc2ccccc2s1 | 30 nM
9 | O=C(NCCN1CCC2(CC1)C(=O)NCN2c1cccc(F)c1)c1cc2cc(F)ccc2[nH]1 | 25 nM
10 | O=C(NCCN1CCC2(CC1)C(=O)NCN2c1cccc(Cl)c1)c1ccc(F)cc1 | 70 nM
11 | O=C(NCCN1CCC2(CC1)C(=O)NCN2c1cccc(Cl)c1)c1cnc2ccccc2c1 | 165 nM
12 | O=C(NCCN1CCC2(CC1)C(=O)NCN2c1ccc(Cl)cc1)c1cnc2ccccc2c1 | 200 nM
13 | O=C(NCCN1CCC2(CC1)C(=O)NCN2c1ccc(F)cc1)c1ccc2ccccc2c1 | 80 nM
14 | O=C(NCCN1CCC2(CC1)C(=O)NCN2c1cccc(Cl)c1)c1cc2cc(F)ccc2[nH]1 | 73 nM
15 | O=C(NCCN1CCC2(CC1)C(=O)NCN2c1ccc(Cl)cc1)c1ccc2ccccc2c1 | 655 nM
16 | O=C(NCCN1CCC2(CC1)C(=O)NCN2c1ccc(F)c(F)c1)c1ccc(F)cc1 | 660 nM
17 | COc1cc(C(=O)NCCN2CCC3(CC2)C(=O)NCN3c2ccccc2)ccc1N | 550 nM
18 | O=C(NCCN1CCC2(CC1)C(=O)NCN2c1ccc(Br)cc1)c1cnc2ccccc2c1 | 360 nM
19 | C[C@@H](CN1CCC2(CC1)C(=O)NCN2c1cccc(F)c1)NC(=O)c1ccc2ccccc2c1 | 60 nM
20 | O=C(NCCN1CCC2(CC1)C(=O)NCN2c1cccc(F)c1)c1ccc(F)cc1 | 6690 nM
21 | O=C(NCCN1CCC2(CC1)C(=O)NCN2c1cccc(F)c1)c1cnc2ccccc2c1 | 63 nM
22 | O=C(NCCN1CCC2(CC1)C(=O)NCN2c1ccc(Br)cc1)c1ccc(F)cc1 | 8000 nM
23 | O=C(NCCN1CCC2(CC1)C(=O)NCN2c1ccc(Br)cc1)c1ccc2ccccc2c1 | 350 nM
